What was measured:
Assay type in all cases: binding
[1] = target: T1, Growth factor receptor-bound protein-2 (GRB2) (Homo sapiens, UniProt P62993); test: SPR (GRB2 immobilized on CM5 chip); supported by competition ELISA with GST-GRB2 and cellulose nitrate filtration assay
[2] = target: T1, Growth factor receptor-bound protein-2 (GRB2); test: SPR (GRB2 immobilized on CM5 chip); authors call conditions sub-par for this compound
[3] = target: T1, Growth factor receptor-bound protein-2 (GRB2); test: SPR (GRB2 immobilized on CM5 chip); authors call conditions sub-par; only two non-zero concentrations shown
Text: SPR (GRB2 immobilized on CM5 chip); authors call conditions sub-par; only two non-zero concentrations shown on Growth factor receptor-bound protein-2 (GRB2) | SPR data of NHD2-107 versus GRB2.

T1 sequence (P62993 whole entry): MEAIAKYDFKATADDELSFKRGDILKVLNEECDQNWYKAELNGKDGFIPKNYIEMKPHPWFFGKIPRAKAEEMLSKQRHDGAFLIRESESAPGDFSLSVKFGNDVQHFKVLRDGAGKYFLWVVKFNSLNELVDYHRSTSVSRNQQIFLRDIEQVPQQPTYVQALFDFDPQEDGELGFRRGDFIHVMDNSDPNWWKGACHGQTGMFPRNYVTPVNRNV

Structure (SMILES)	Kd [2]	also measured
CC(=O)c1c(C)oc2nc3ccccc3nc12 [NHD2-15]		Kd [1]: 119 ± 2 µM
COC(=O)c1c(C)oc2nc3ccccc3nc12 [NHD2-92]	1000 ± 20 µM	
CCOC(=O)c1c(-c2ccccc2)oc2nc3ccccc3nc12 [NHD2-107]		Kd [3]: 3400 ± 100 µM
CCOC(=O)c1c(C)oc2nc3ccccc3nc12 [NHD2-114]	440 ± 7 µM	

Source: publication PMC7418987, “NHD2-15, a novel antagonist of Growth Factor Receptor-Bound Protein-2 (GRB2), inhibits leukemic proliferation” (PLoS ONE, 2020)
